The supplement of paper PMC10307832

Assays:
Experiment in all cases: relative viability (nuclei count vs DMSO), 5 days (fraction); higher = more cells survive
Ponatinib + Crizotinib = compound: Cc1ccc(C(=O)Nc2ccc(CN3CCN(C)CC3)c(C(F)(F)F)c2)cc1C#Cc1cnc2cccnn12 [Ponatinib] + C[C@@H](Oc1cc(-c2cnn(C3CCNCC3)c2)cnc1N)c1c(Cl)ccc(F)c1Cl [Crizotinib] (partner 1 µM)
In short: (§1)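 Lung cancer cell lines, seeded in 1536-well plates, were treated the following day by pin tool with a single drug or with five library-drug doses (not always all listed) in √10 steps on top of a fixed anchor-drug dose. Cells were fixed and nuclei stained in one step after 5 days, and nuclei were counted. Relative viability is the nuclei count for treated wells divided by that for vehicle wells, reported as medians of duplicate plates.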

Pazopanib + Tozasertib = compound: Cc1ccc(Nc2nccc(N(C)c3ccc4c(C)n(C)nc4c3)n2)cc1S(N)(=O)=O [Pazopanib] + Cc1cc(Nc2cc(N3CCN(C)CC3)nc(Sc3ccc(NC(=O)C4CC4)cc3)n2)n[nH]1 [Tozasertib] (partner 0.1 µM)
In short: as §1

Pazopanib + Vorinostat = compound: Cc1ccc(Nc2nccc(N(C)c3ccc4c(C)n(C)nc4c3)n2)cc1S(N)(=O)=O [Pazopanib] + O=C(CCCCCCC(=O)Nc1ccccc1)NO [Vorinostat] (partner 1 µM)
In short: as §1

Ponatinib + Decitabine = compound: Cc1ccc(C(=O)Nc2ccc(CN3CCN(C)CC3)c(C(F)(F)F)c2)cc1C#Cc1cnc2cccnn12 [Ponatinib] + Nc1ncn([C@H]2C[C@H](O)[C@@H](CO)O2)c(=O)n1 [Decitabine] (partner 2 µM)
In short: as §1

Cell Line | relative viability (Ponatinib + Crizotinib; first compound 0.002 µM) | relative viability (Ponatinib + Crizotinib; first compound 0.006325 µM) | relative viability (Ponatinib + Crizotinib; first compound 0.06325 µM) | relative viability (Ponatinib + Crizotinib; first compound 0.2 µM) | relative viability (Pazopanib + Tozasertib; first compound 0.01 µM) | relative viability (Pazopanib + Tozasertib; first compound 0.03162 µM) | relative viability (Pazopanib + Tozasertib; first compound 0.3162 µM) | relative viability (Pazopanib + Tozasertib; first compound 1 µM) | relative viability (Pazopanib + Vorinostat; first compound 0.01 µM) | relative viability (Pazopanib + Vorinostat; first compound 0.03162 µM) | relative viability (Pazopanib + Vorinostat; first compound 0.1 µM) | relative viability (Pazopanib + Vorinostat; first compound 0.3162 µM) | relative viability (Pazopanib + Vorinostat; first compound 1 µM) | relative viability (Ponatinib + Decitabine; first compound 0.002 µM) | relative viability (Ponatinib + Decitabine; first compound 0.006325 µM) | relative viability (Ponatinib + Decitabine; first compound 0.06325 µM) | relative viability (Ponatinib + Decitabine; first compound 0.2 µM) | relative viability (Pazopanib + Tozasertib; first compound 0.1 µM)
ABC-1 | 1.24 | 1.23 | 1.08 | 0.852 | 0.182 | 0.174 | 0.151 | 0.19 | 1.04 | 1.38 | 0.731 | 1.2 | 1.27 | 1 | 1.03 | 1.16 | 0.91 | 
NCI-H522 |  |  |  |  | 0.568 | 0.454 | 0.646 | 0.58 | 0.603 | 0.874 | 0.851 | 0.922 | 1.02 | 0.615 | 0.64 | 0.615 | 0.609 | 0.493
PC-14 | 0.866 | 0.901 | 0.966 | 0.946 | 0.69 | 0.636 | 0.586 | 0.603 | 0.81 | 0.87 | 0.669 | 0.786 | 0.751 | 0.214 | 0.222 | 0.232 | 0.214 | 0.725
SW 900 |  |  |  |  | 0.556 | 0.443 | 0.578 | 0.53 | 0.465 | 0.33 |  | 0.545 | 0.53 | 0.447 | 0.43 | 0.518 | 0.481 | 0.495
A549 | 0.625 | 0.743 | 0.682 | 0.702 |  |  |  |  |  |  |  |  |  | 0.238 | 0.294 | 0.324 | 0.295 | 
A-427 | 0.875 | 1.02 | 0.838 | 0.743 | 0.183 | 0.207 | 0.217 | 0.186 | 0.862 | 0.941 | 0.825 | 0.903 | 0.971 | 0.547 | 0.507 | 0.592 | 0.49 | 0.207
NCI-H1792 | 0.956 | 0.988 | 1.1 | 0.976 |  |  |  |  |  |  |  |  |  | 0.476 | 0.488 | 0.516 | 0.495 | 
LCLC-97TM1 |  | 0.369 |  | 0.413 | 0.222 | 0.221 | 0.195 | 0.166 |  | 0.877 | 0.58 | 0.797 | 0.736 | 0.205 | 0.242 | 0.214 | 0.248 | 0.185
NCI-H1703 | 0.588 | 0.693 | 0.254 | 0.172 |  |  |  |  |  |  |  |  |  |  |  |  |  | 
LCLC-103H | 1.03 | 1.13 | 1.17 | 1.03 | 0.456 | 0.464 | 0.467 | 0.479 | 0.692 | 0.804 | 0.753 | 0.823 | 0.842 | 0.713 | 0.693 | 0.759 | 0.722 | 0.46
RERF-LC-KJ | 0.816 | 0.766 | 0.928 | 0.834 | 0.557 | 0.522 | 0.432 | 0.331 | 0.63 | 0.79 | 0.622 | 0.601 | 0.596 | 0.646 | 0.724 | 0.835 | 0.665 | 0.507
BEN | 0.838 | 0.824 | 0.804 | 0.794 | 0.481 | 0.463 | 0.516 | 0.482 | 0.593 | 0.606 | 0.533 | 0.591 | 0.563 | 0.723 | 0.687 | 0.699 | 0.656 | 0.582
NCI-H1666 | 0.951 | 0.978 | 1.06 | 0.989 | 0.573 | 0.649 | 0.609 | 0.648 | 1.15 | 1.09 | 0.993 | 1.06 | 0.909 | 0.752 | 0.745 | 0.812 | 0.766 | 0.625
LC-2-ad | 0.482 | 0.417 | 0.418 | 0.421 | 0.469 | 0.444 | 0.467 | 0.471 | 0.697 | 0.719 | 0.732 | 0.771 | 0.732 | 0.738 | 0.684 | 0.696 | 0.582 | 0.516
SW 1573 | 0.707 | 0.876 | 0.887 | 0.608 | 0.193 | 0.216 | 0.153 | 0.176 | 0.641 | 0.692 | 0.648 | 0.992 | 0.525 | 0.463 | 0.458 | 0.695 | 0.46 | 0.218
Calu-6 | 0.701 | 0.73 | 0.805 | 0.763 |  |  |  |  |  |  |  |  |  |  |  |  |  | 
NCI-H1648 |  |  |  |  | 0.387 | 0.57 | 0.459 | 0.476 |  |  | 0.337 | 0.535 | 0.376 | 0.464 | 0.615 | 0.429 | 0.358 | 0.398
EBC-1 | 0.179 | 0.214 | 0.208 | 0.192 |  |  |  |  |  |  |  |  |  |  |  |  |  | 
NCI-H1299 | 0.904 | 0.936 | 0.974 | 0.923 |  |  |  |  |  |  |  |  |  |  |  |  |  | 
NCI-H2228 | 0.434 | 0.41 | 0.385 | 0.234 | 0.265 | 0.271 | 0.26 | 0.302 | 1.12 | 1.01 | 0.706 | 0.59 | 0.619 |  |  |  |  | 0.265
NCI-H2342 |  |  |  |  | 0.481 | 0.554 | 0.496 | 0.388 | 0.671 | 0.789 | 0.704 | 0.762 | 0.687 | 0.74 | 0.703 | 0.837 | 0.77 | 0.544
IA-LM | 0.6 | 0.737 | 0.887 | 0.7 |  |  |  |  |  | 0.977 | 1.1 | 0.964 | 0.945 |  |  |  |  | 
NCI-H1395 |  |  |  |  | 0.793 | 0.715 | 0.915 | 0.747 | 0.586 | 0.768 | 0.673 | 0.734 | 1.07 | 0.816 | 0.714 | 0.682 | 0.615 | 0.764
CAL-12T | 0.774 | 0.653 | 0.756 | 0.614 | 0.247 | 0.327 | 0.297 | 0.294 | 0.742 | 0.649 | 0.744 | 0.754 | 0.834 |  |  |  |  | 0.312
